EP4768499A1, “MACROCYCLIC PEPTIDE COMPOUND HAVING CELL MEMBRANE PERMEABILITY AND METABOLIC STABILITY, AND LIBRARY CONTAINING SAME” (Chugai Seiyaku Kabushiki Kaisha, priority 2023, dated 2025)
Where two headings read alike, the source gives them in different places. Starred links: 1 amine or outer side, 2 acyl side, 3 side chain; linkers in the order of their positions; H or OH if unused. Positions of bridges follow the written chain, without caps; N, C: chain ends. Non-standard residues stand in square brackets, D forms with d. Residues, ends and D or L forms follow the SMILES beside them. *: point of attachment. NMeF = CN[C@@H](Cc1ccccc1)C(=O)O; NMeGABA = CN(CCCC(=O)[*:2])[*:1]; NMeI = CC[C@H](C)[C@H](NC)C(=O)O; NMeT = CN[C@H](C(=O)O)[C@@H](C)O; hPhe = N[C@@H](CCc1ccccc1)C(=O)O; NMeβAla = CN(CCC(=O)[*:2])[*:1]; NMeL = CN[C@@H](CC(C)C)C(=O)O; dNMeV = CN[C@@H](C(=O)O)C(C)C; NMeV = CN[C@H](C(=O)O)C(C)C; NMeAbu = CC[C@H](NC)C(=O)O; NMeA = CN[C@@H](C)C(=O)O; Piperidide = C1CCN(*)CC1; Abu = CC[C@H](N)C(=O)O; NBuGly = CCCCNCC(=O)O; βAla = NCCC(=O)O; Sar = CNCC(=O)O; tBu = CC(C)(C)*

Tests used:
Caco-2 cells = assay: Membrane permeability test using Caco-2 cells with preincubation; assay type: in vitro ADME
Method: (§1) The permeability coefficient (Caco-2 Papp (cm/sec)) is calculated using a numerical expression 1. [Expression 1] Papp = (1)/(C1 (0) × S) × (dQ)/(dt) [formula] dQ/dt represents the permeation rate of drug (the amount of drug appearing on the Basal side per unit time), S represents the total surface area of cells, and C1(0) represents the concentration of drug added on the Apical side.
(§2) Using a mixed medium of FaSSIF containing 1% DMSO and DMEM as the apical medium, and DMEM as the basal medium, Caco-2 cells and peptide compounds are preincubated for 20 to 24 hours under conditions of 5% CO2, 37°C, and 80 rpm. Afterward, the culture medium on the Apical side and the Basal side are aspirated and washed, the peptide compound was added to a FaSSIF/HBSS buffer solution containing 1% DMSO (1% DMSO) (pH 6.0) at the Apical side, a HBSS buffer solution containing 4% BSA (pH 7.4) was added to the Basal side, and measurement of membrane permeability is started. Each well is shaken under 5% CO2 at 37°C and 80 rpm, and at 180 minutes after the start of shaking, a sample on the Basal side is collected. The amount of peptide compounds in the sample was measured using LCMS, and the membrane permeability coefficient was calculated from the permeation amount (Table 7). When calculating the membrane permeability coefficient (Papp) from the permeation amount, the following expression can be used. Papp = (dQ)/(dt) × (1)/(C1 (0) × S) [formula]
(§3) dQ/dt represents the permeation rate of drug (the amount of drug appearing on the Basal side per unit time), C1(0) represents the concentration of drug added on the Apical side, and S represents the total surface area of cells.

[1] = as above; assay type: in vitro ADME; settings: Caco-2
Method: as §1, §2, §3

[2] = Metabolic stability test: liver microsomal stability assay; assay type: in vitro ADME, mouse; settings: for microsomal CLint at 1 µM: male, pH 7.4, presence of NADPH, read-out: Mouse Hepatic Microsome CLh,int NADPH(+)
Method: Under the presence and absence of NADPH, a microsome solution prepared to a concentration of 0.5 mg protein/mL using 100 mM phosphate buffer (pH 7.4) with mouse liver microsomes (male, Corning Incorporated, USA) and the compound at a concentration of 1 µM were subjected to a metabolic reaction for 22 minutes, 44 minutes, or 66 minutes. Protein removal processing was performed over time using acetonitrile, and the remaining amount of unchanged compound was analyzed using LCMS to calculate the intrinsic hepatic clearance (CLh, int) (Table 6).

[3] = Caco-2 cells, preincubation 20 to 24 hours, apical FaSSIF/HBSS 1% DMSO pH 6.0, basal HBSS 4% BSA pH 7.4, basal sample at 180 minutes
[4] = preincubation 20 to 24 hours, Apical FaSSIF/HBSS pH 6.0, Basal HBSS 4% BSA pH 7.4, 180 minutes, read-out: Caco2 Papp
[5] = mouse liver microsomes 0.5 mg protein/mL, compound 1 µM
[6] = mouse liver microsomes 0.5 mg protein/mL, compound 1 µM, absence of NADPH

Row | Structure (SMILES) | Caco2 Papp (10^-6 cm/sec) (Caco-2 cells; [3]) | Papp A→B [1, 4] [×10⁻⁶ cm/s] | microsomal CLint at 1 µM [2, 5] [µL/min/mg] | Mouse Hepatic Microsome CLh,int NADPH(-) [2, 6] [µL/min/mg Protein] | Caco2 Papp (10^-6 cm/sec) (Caco-2 cells; Caco-2) | Papp A→B [1] [×10⁻⁶ cm/s] | Mouse Hepatic Microsome CLh,int NADPH(-) [2] [µL/min/mg Protein]
1 | CCCCN1CC(=O)N[C@@H](C)C(=O)N(C)[C@@H](Cc2ccccc2)C(=O)N[C@@H](CC(C)C)C(=O)N[C@@H](C)C(=O)N(C)[C@@H](C(C)C)C(=O)N[C@H](C(=O)N2CCCCC2)CC(=O)N[C@H](C(C)C)C(=O)N(C)[C@@H](Cc2ccccc2)C(=O)N[C@@H](CC)C(=O)N(C)[C@@H](C(C)C)C(=O)N(C)CCC(=O)N[C@@H]([C@@H](C)O)C(=O)N(C)[C@@H](CC(C)C)C1=O [pd019] ([dV][NMeF][Abu][NMeV][NMeβAla]T[NMeL][NBuGly]A[NMeF]LA[NMeV]D-Piperidide; lactam N-14) | <0.11 10^-6 cm/sec | < 0.11 | 34.7 | 24.9 | – | – | –
2 | CC[C@H]1C(=O)N[C@@H](C(C)C)C(=O)N[C@H](C(=O)N2CCCCC2)CC(=O)N(C)[C@H](C(C)C)C(=O)N(C)[C@@H](Cc2ccccc2)C(=O)N[C@@H](CC(C)C)C(=O)N(C)CC(=O)N[C@@H](CC(C)C)C(=O)N[C@@H]([C@@H](C)O)C(=O)N(C)[C@@H](CC(C)C)C(=O)N(C)[C@@H](C(C)C)C(=O)N[C@@H](C)C(=O)N[C@@H](COC(C)(C)C)C(=O)N(C)[C@@H](Cc2ccccc2)C(=O)N1C [pd020] ([dNMeV][NMeF]L[Sar]LT[NMeL][NMeV]AS(tBu)[NMeF][NMeAbu]VD-Piperidide; lactam N-14) | <0.11 10^-6 cm/sec | < 0.11 | 33.3 | 24.9 | – | – | –
3 | CC[C@@H]1NC(=O)[C@H](Cc2ccccc2)N(C)C(=O)[C@H]([C@@H](C)CC)NC(=O)[C@H](CC(C)C)N(C)C(=O)[C@H](CC(C)C)NC(=O)CCN(C)C(=O)C[C@@H](C(=O)N2CCCCC2)NC(=O)[C@H](C(C)C)NC(=O)[C@H](CC(C)C)N(C)C(=O)[C@H](C)N(C)C(=O)[C@H]([C@@H](C)O)NC(=O)[C@H](CC(C)C)N(C)C(=O)[C@H](COC(C)(C)C)NC(=O)[C@H](Cc2ccccc2)N(C)C1=O [pd021] ([NMeβAla]L[NMeL]I[NMeF][Abu][NMeF]S(tBu)[NMeL]T[NMeA][NMeL]VD-Piperidide; lactam N-14) | 0.15 10^-6 cm/sec | 0.15 | 37.1 | 36.3 | – | – | –
4 | CC[C@H](C)[C@@H]1NC(=O)[C@H](COC(C)(C)C)NC(=O)[C@H]([C@@H](C)O)NC(=O)[C@H](Cc2ccccc2)N(C)C(=O)[C@H](C)N(C)C(=O)[C@H](CC(C)C)N(C)C(=O)[C@H](CCc2ccccc2)NC(=O)[C@@H]2CCCN2C(=O)[C@H]([C@@H](C)CC)NC(=O)[C@H](CC(C)C)N(C)C(=O)[C@H](C)NC(=O)CCCN(C)C(=O)C[C@@H](C(=O)N2CCCCC2)NC(=O)[C@H](CC(C)C)N(C)C1=O [pd022] ([NMeGABA]A[NMeL]IP[hPhe][NMeL][NMeA][NMeF]TS(tBu)I[NMeL]D-Piperidide; lactam N-14) | 0.15 10^-6 cm/sec | 0.15 | 44.4 | 36.4 | – | – | –
5 | CC[C@@H]1NC(=O)[C@H](CC(C)C)N(C)C(=O)[C@H](C)NC(=O)[C@@H]2CCCN2C(=O)[C@H]([C@@H](C)CC)NC(=O)[C@H](CC(C)C)N(C)C(=O)[C@H](CCc2ccccc2)NC(=O)CCCN(C)C(=O)C[C@@H](C(=O)N2CCCCC2)NC(=O)[C@H](CC(C)C)N(C)C(=O)[C@H]([C@@H](C)CC)NC(=O)[C@H](C)N(C)C(=O)[C@H]([C@@H](C)O)NC(=O)[C@H](Cc2ccccc2)N(C)C1=O [pd023] ([NMeGABA][hPhe][NMeL]IPA[NMeL][Abu][NMeF]T[NMeA]I[NMeL]D-Piperidide; lactam N-14) | 0.03 10^-6 cm/sec | 0.03 | 43.3 | 26.2 | – | – | –
6 | CC[C@H](C)[C@H]1C(=O)NCCC(=O)N(C)[C@@H](CC(C)C)C(=O)N[C@H](C(=O)N2CCCCC2)CC(=O)N(C)[C@@H](C)C(=O)N[C@@H](CC(C)C)C(=O)N[C@@H]([C@@H](C)O)C(=O)N(C)[C@@H](Cc2ccccc2)C(=O)NCCC(=O)N(C)[C@@H](C(C)C)C(=O)N[C@@H](CC(C)C)C(=O)N(C)[C@@H]([C@@H](C)CC)C(=O)N[C@@H](CCc2ccccc2)C(=O)N(C)CC(=O)N1C [pd024] ([NMeA]LT[NMeF][βAla][NMeV]L[NMeI][hPhe][Sar][NMeI][βAla][NMeL]D-Piperidide; lactam N-14) | – | – | – | – | 0.30 10^-6 cm/sec | 0.3 | 20.0
7 | CC[C@H](C)[C@@H]1NC(=O)[C@H](C)NC(=O)[C@H](C(C)C)N(C)C(=O)[C@H](COC(C)(C)C)NC(=O)[C@H](C)N(C)C(=O)C[C@@H](C(=O)N2CCCCC2)NC(=O)[C@H](C(C)C)NC(=O)[C@H](Cc2ccccc2)N(C)C(=O)[C@H](CC(C)C)N(C)C(=O)[C@H]([C@@H](C)O)NC(=O)[C@H](CC)N(C)C(=O)[C@H](Cc2ccccc2)N(C)C(=O)[C@H](C)NC(=O)[C@@H]2CCCN2C1=O [pd025] ([NMeA]S(tBu)[NMeV]AIPA[NMeF][NMeAbu]T[NMeL][NMeF]VD-Piperidide; lactam N-14) | 0.05 10^-6 cm/sec | 0.05 | 14.8 | 15.8 | – | – | –
8 | CCCCN1CC(=O)N[C@@H]([C@@H](C)CC)C(=O)N(C)[C@@H](CC(C)C)C(=O)N[C@@H](C(C)C)C(=O)N[C@H](C(=O)N2CCCCC2)CC(=O)N(C)[C@@H](C)C(=O)N(C)[C@@H](CC(C)C)C(=O)N[C@@H]([C@@H](C)O)C(=O)N(C)[C@@H](Cc2ccccc2)C(=O)N[C@@H](CC)C(=O)N(C)[C@@H](Cc2ccccc2)C(=O)N[C@@H](C)C(=O)N(C)CCC(=O)N[C@@H](CC(C)C)C1=O [pd026] ([NMeA][NMeL]T[NMeF][Abu][NMeF]A[NMeβAla]L[NBuGly]I[NMeL]VD-Piperidide; lactam N-14) | 0.58 10^-6 cm/sec | 0.58 | 63.5 | 29.9 | – | – | –
9 | CC[C@H](C)[C@@H]1NC(=O)[C@H](CC(C)C)N(C)C(=O)[C@H](CC(C)C)NC(=O)[C@H](C)N(C)C(=O)C[C@@H](C(=O)N2CCCCC2)NC(=O)[C@H](CC(C)C)NC(=O)[C@@H]2CCCN2C(=O)[C@H](CC(C)C)N(C)C(=O)[C@H]([C@@H](C)O)NC(=O)[C@H]([C@@H](C)CC)N(C)C(=O)[C@H](Cc2ccccc2)N(C)C(=O)[C@H](C)NC(=O)[C@H](Cc2ccccc2)N(C)C(=O)[C@H](CC(C)C)NC1=O [pd027] ([NMeA]L[NMeL]IL[NMeF]A[NMeF][NMeI]T[NMeL]PLD-Piperidide; lactam N-14) | 0.02 10^-6 cm/sec | 0.02 | 42.4 | 31.1 | – | – | –
10 | CC[C@@H]1NC(=O)[C@H]([C@@H](C)O)N(C)C(=O)[C@H](CC(C)C)N(C)C(=O)[C@H]([C@@H](C)CC)NC(=O)[C@H](Cc2ccccc2)N(C)C(=O)CN(C)C(=O)C[C@@H](C(=O)N2CCCCC2)NC(=O)[C@H](C(C)C)N(C)C(=O)[C@H](CC)NC(=O)[C@H](COC(C)(C)C)NC(=O)[C@H](C)N(C)C(=O)[C@H](CC)NC(=O)[C@H](CC(C)C)N(C)C(=O)[C@H](CCc2ccccc2)NC1=O [pd028] ([Sar][NMeF]I[NMeL][NMeT][Abu][hPhe][NMeL][Abu][NMeA]S(tBu)[Abu][NMeV]D-Piperidide; lactam N-14) | 0.03 10^-6 cm/sec | 0.03 | 37.2 | 22.1 | – | – | –
